Assay results published in US20250320213A1, “Nitrogen-Containing Heterocyclic Compounds” (Pfizer Inc., priority 2024, published 2025).
Like-named read-outs stand apart in the source and are kept apart here.

Tests used:
[1] = test system: CCL17 secretion in peripheral human whole blood; test: Human Whole Blood (HWB) CCL17 TR-FRET Assay (IL-13 stimulated CCL17 secretion); assay type: cell-based
Method: The IC50 (half-maximal concentration required for inhibition) of compounds for the inhibition of CCL17 secretion in peripheral human whole blood, stimulated through the IL-13-IL-13 receptor/IL-4 receptor pathway was evaluated with a TR-FRET sandwich ELISA CCL17 (TARC) Assay Kit (Bioauxilium).
Test compounds (solubilized and serially diluted in DMSO, in an 11 point, 3-fold dilution series in duplicate) were spotted, 80 nL per well, into a 384 well v-bottom polypropylene plate. Human whole blood was collected from a peripheral vein, 714 units of sodium heparin was added for every 50 mL of blood collected. Sixty μL per well of blood was added to the compound plate. The blood plate was incubated for two hours at 37° C. After two hours, CCL17 production was stimulated with the addition of 20 μL per well of IL13 (R&D Systems) in HBSS with calcium and magnesium, with a final concentration of 10 ng/mL IL13. The plate containing blood, compound, and IL-13 was incubated at 37° C. for 48 hours, to allow for CCL17 production. After 48 hours, the plate was centrifuged at 1,500 revolutions per minute (RPM) for 7 minutes, with no braking. The CCL17 TR-FRET Assay Kit detection reagent was prepared according to kit instructions and 4 μL per well of the antibody cocktail was added to a 384-well white low volume non-binding coated plate (Corning). Sixteen μL of serum from the centrifuged blood plate was transferred to the detection plate containing the TR-FRET antibody cocktail. The plate was centrifuged briefly, then covered and incubated 16 hours at room temperature. The plate was then read on an EnVision 2105 multilabel reader (PerkinElmer) with settings for TR-FRET Ratio=10,000×(fluorescence intensity 665 nm/fluorescence intensity 615 nm).

STAT6 = target: T1, STAT6 (Homo sapiens, UniProt P42226); test: STAT6 Reporter Luciferase Assay (IL-13 stimulated HaCaT keratinocyte NanoLuc reporter cells); assay type: cell-based; conditions: read-out: Reporter EC50
T1 construct: stably transfected HaCaT keratinocyte cell line, which expresses NanoLuc luciferase reporter gene under the transcriptional control of the STAT6 responsive promoter; endogenous in cells; host or cells: HaCaT keratinocyte reporter cell line (stably transfected with a NanoLuc reporter)
T1 sequence (P42226 1-847): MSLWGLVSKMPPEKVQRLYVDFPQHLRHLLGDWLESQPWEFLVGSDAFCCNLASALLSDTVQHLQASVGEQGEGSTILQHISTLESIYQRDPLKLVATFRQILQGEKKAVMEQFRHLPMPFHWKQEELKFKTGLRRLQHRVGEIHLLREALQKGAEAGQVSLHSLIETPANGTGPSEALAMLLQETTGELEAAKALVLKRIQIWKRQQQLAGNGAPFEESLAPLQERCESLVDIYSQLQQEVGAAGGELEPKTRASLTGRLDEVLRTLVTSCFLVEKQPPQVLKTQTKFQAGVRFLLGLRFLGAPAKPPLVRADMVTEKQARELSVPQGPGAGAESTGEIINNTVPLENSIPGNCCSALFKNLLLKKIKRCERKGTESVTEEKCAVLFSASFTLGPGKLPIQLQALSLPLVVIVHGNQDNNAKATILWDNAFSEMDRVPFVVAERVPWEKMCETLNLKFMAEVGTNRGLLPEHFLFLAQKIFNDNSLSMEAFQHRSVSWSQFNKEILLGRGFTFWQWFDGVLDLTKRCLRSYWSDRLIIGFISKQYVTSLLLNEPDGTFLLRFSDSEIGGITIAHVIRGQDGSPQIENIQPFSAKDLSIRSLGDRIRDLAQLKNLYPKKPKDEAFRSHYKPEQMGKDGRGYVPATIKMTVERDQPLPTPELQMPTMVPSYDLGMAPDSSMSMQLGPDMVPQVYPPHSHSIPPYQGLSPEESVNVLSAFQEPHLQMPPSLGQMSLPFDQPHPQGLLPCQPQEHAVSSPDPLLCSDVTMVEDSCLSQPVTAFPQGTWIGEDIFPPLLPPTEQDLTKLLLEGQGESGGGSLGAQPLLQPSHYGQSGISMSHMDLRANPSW
Method in brief: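 IL-13 (0.12 nM, 4 h) stimulated STAT6 reporter activity in HaCaT cells after a 2 h compound pre-incubation; NanoLuc signal was measured.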

[2] = IL-13 stimulated HaCaT STAT6 NanoLuc reporter cells
[3] = Homo sapiens, 48 h, inhibition of CCL17 secretion in human whole blood, 10 ng/mL IL13, 48 hours
[4] = STAT6 NanoLuc luciferase reporter, IL-13 stimulated HaCaT keratinocyte cells
[5] = Homo sapiens, 48 h, human whole blood, IL-13 stimulated
[6] = Homo sapiens, 48 h, human whole blood, IL-13 10 ng/mL

| Structure (SMILES) | EC50 (STAT6; [2]) | IC50 [1, 3] | EC50 (STAT6; [4]) | IC50 [1, 5] | other results |
| --- | --- | --- | --- | --- | --- |
| CCn1nc(C(=O)NCc2ccc(NC(=O)N(C)C)cc2)c2c1C(C(F)(F)F)CN(c1ncc(C(=O)N(C)C)cn1)C2 (single isomer, unassigned) [Example 465, rel-(R or S)-5-(5-(dimethylcarbamoyl)pyrimidin-2-yl)-N-(4-(3,3-dimethylureido)benzyl)-1-ethyl-7-(trifluoromethyl)-4,5,6,7-tetrahydro-1H-pyrazolo[4,3-c]pyridine-3-carboxamide] | 51.8 nM | – | – | – | IC50 ([1]; human whole blood, IL-13 stimulated, 48 hours): 682 nM |
| CC(C)n1nc(C(=O)NCc2ccc(NC(=O)N3CCC(C)(O)C3)cc2)c2c1CCN(c1ccc(C(=O)N(C)C)cn1)C2 (racemic) [Example 160, rac-(R)-5-(5-(dimethylcarbamoyl)pyridin-2-yl)-N-(4-(3-hydroxy-3-methylpyrrolidine-1-carboxamido)benzyl)-1-isopropyl-4,5,6,7-tetrahydro-1H-pyrazolo[4,3-c]pyridine-3-carboxamide] | – | 21 nM | 15 nM | – | – |
| C[C@H]1Cc2c(c(C(=O)NCc3ccc(NC(=O)N(C)C)cc3)nn2C)CN1c1ccc(C(=O)N(C)C)cn1 [Example 51, (S)-5-(5-(dimethylcarbamoyl)pyridin-2-yl)-N-(4-(3,3-dimethylureido)benzyl)-1,6-dimethyl-4,5,6,7-tetrahydro-1H-pyrazolo[4,3-c]pyridine-3-carboxamide] | – | 30 nM | 4 nM | – | – |
| CC(C)n1nc(C(=O)NCc2ccc(NC(=O)N(C)CC3COCCO3)cc2)c2c1CCN(c1ccc(C(=O)N(C)C)cn1)C2 (racemic) [Example 176, rac-(R)-N-(4-(3-((1,4-dioxan-2-yl)methyl)-3-methylureido)benzyl)-5-(5-(dimethylcarbamoyl)pyridin-2-yl)-1-isopropyl-4,5,6,7-tetrahydro-1H-pyrazolo[4,3-c]pyridine-3-carboxamide] | – | 51 nM | 12 nM | – | – |
| CC(C)n1nc(C(=O)NCc2ccc(NC(=O)N(C)C)cc2)c2c1CCN(c1ccc(C(=O)N(C)C)cn1)[C@@H]2C (single isomer, unassigned) [Example 506] | 2 nM | – | – | 14 nM | – |
| CC(C)n1nc(C(=O)NCc2ccc(C(=O)NCC3CCN(C)CC3)cc2)c2c1[C@@H](C)CN(c1ccc(C(=O)N(C)C)cn1)C2 [Example 618, (S)-5-(5-(dimethylcarbamoyl)pyridin-2-yl)-1-isopropyl-7-methyl-N-(4-(((1-methylpiperidin-4-yl)methyl)carbamoyl)benzyl)-4,5,6,7-tetrahydro-1H-pyrazolo[4,3-c]pyridine-3-carboxamide] | 127 nM | – | – | – | IC50 ([1]; Homo sapiens, 48 h, human whole blood, 10 ng/mL IL13, 48 hours): 612 nM |
| C[C@@H]1c2c(C(=O)NCc3ccc(NC(=O)N(C)C)cc3)nn(C)c2CCN1c1ccc(C(=O)N(C)C)cn1 (single isomer, unassigned) [Example 445] | 2 nM | – | – | 21 nM | – |
| CC(C)n1nc(C(=O)NCc2ccc(NC(=O)N(C)C)cc2)c2c1CCN(c1ccc(-c3ncnn3C)cn1)C2 [Example 27, N-(4-(3,3-dimethylureido)benzyl)-1-isopropyl-5-(5-(1-methyl-1H-1,2,4-triazol-5-yl)pyridin-2-yl)-4,5,6,7-tetrahydro-1H-pyrazolo[4,3-c]pyridine-3-carboxamide] | – | 91 nM | 6 nM | – | – |
| CNC(=O)Cc1ccc(N2CCc3c(c(C(=O)NCc4ccc(NC(=O)N(C)C)cc4)nn3C(C)C)C2)nc1 [Example 337, N-(4-(3,3-dimethylureido)benzyl)-1-isopropyl-5-(5-(2-(methylamino)-2-oxoethyl)pyridin-2-yl)-4,5,6,7-tetrahydro-1H-pyrazolo[4,3-c]pyridine-3-carboxamide] | 5370 nM | – | – | > 20500 nM | – |
| CC(C)n1nc(C(=O)NCc2ccc(NC(=O)N3CCN(C)CC3)c(F)c2)c2c1[C@@H](C)CN(c1ccc(C(=O)N3Cc4cccnc4C3)cc1)C2 [Example 711, (S)-5-(4-(6,7-dihydro-5H-pyrrolo[3,4-b]pyridine-6-carbonyl)phenyl)-N-(3-fluoro-4-(4-methylpiperazine-1-carboxamido)benzyl)-1-isopropyl-7-methyl-4,5,6,7-tetrahydro-1H-pyrazolo[4,3-c]pyridine-3-carboxamide] | 0.5 nM | – | – | – | IC50 [1, 6]: 18 nM |
| Cc1c[nH]c(-c2ccc(CNC(=O)c3nn(C(C)C)c4c3CN(c3ccc(N5CCOC5=O)cn3)C[C@@H]4C)cc2)n1 [Example 518, (S)-1-isopropyl-7-methyl-N-(4-(4-methyl-1H-imidazol-2-yl)benzyl)-5-(5-(2-oxooxazolidin-3-yl)pyridin-2-yl)-4,5,6,7-tetrahydro-1H-pyrazolo[4,3-c]pyridine-3-carboxamide] | 2 nM | – | – | 71 nM | – |
| CN(C)C(=O)Nc1ccc(CNC(=O)c2nn(C)c3c2[C@H]2CC[C@@H](C3)N2c2ccc(C(=O)N(C)C)cn2)cc1 (racemic) [Example 86, rac-(4R,7S)-9-(5-(dimethylcarbamoyl)pyridin-2-yl)-N-(4-(3,3-dimethylureido)benzyl)-1-methyl-1,4,5,6,7,8-hexahydro-4,7-epiminocyclohepta[c]pyrazole-3-carboxamide] | – | > 30000 nM | > 10000 nM | – | – |
| CCC1CN(c2ccc(C(=O)N(C)C)cn2)Cc2c(C(=O)NCc3ccc(NC(=O)N(C)C)cc3)n[nH]c21 (racemic) [Example 57, rac-(R)-5-(5-(dimethylcarbamoyl)pyridin-2-yl)-N-(4-(3,3-dimethylureido)benzyl)-7-ethyl-4,5,6,7-tetrahydro-1H-pyrazolo[4,3-c]pyridine-3-carboxamide] | – | 182 nM | 98 nM | – | – |
| Cc1cccc(-c2ccc(CNC(=O)c3nn(C(C)C)c4c3CN(c3ccc(C(=O)N(C)C)cc3)C[C@@H]4C)cc2)n1 [Example 726, (S)-5-(4-(dimethylcarbamoyl)phenyl)-1-isopropyl-7-methyl-N-(4-(6-methylpyridin-2-yl)benzyl)-4,5,6,7-tetrahydro-1H-pyrazolo[4,3-c]pyridine-3-carboxamide] | 123 nM | – | – | – | IC50 [1, 6]: 5680 nM |
| CCC1CN(c2ccc(C(=O)N(C)C)cn2)Cc2c(C(=O)NCc3ccc(NC(=O)N(C)C)cc3)n[nH]c21 (single isomer, unassigned) [Example 82, rel-(R or S)-5-(5-(dimethylcarbamoyl)pyridin-2-yl)-N-(4-(3,3-dimethylureido)benzyl)-7-ethyl-4,5,6,7-tetrahydro-1H-pyrazolo[4,3-c]pyridine-3-carboxamide] | – | – | 101 nM | – | IC50 ([1]; inhibition of CCL17 secretion in human whole blood, 10 ng/mL IL13, 48 hours): 112 nM |
| CC(n1nc(C(=O)NCc2ccc(NC(=O)N(C)C)cc2)c2c1CCN(c1ccc(C(=O)N(C)C)cn1)C2)C(C)(C)C (centres unmarked) [Example 278, 1-(3,3-dimethylbutan-2-yl)-5-(5-(dimethylcarbamoyl)pyridin-2-yl)-N-(4-(3,3-dimethylureido)benzyl)-4,5,6,7-tetrahydro-1H-pyrazolo[4,3-c]pyridine-3-carboxamide] | 5 nM | – | – | 253 nM | – |
